In patent US20030220361A1, “Nicotinamide derivatives and a tiotropium salt in combination for the treatment of diseases” (priority 2002, published 2003) one finds IC50 data, which are given here for 39 molecules.

This assay has as its system TNFα release from human peripheral blood mononuclear cells. The experiment in a line: Inhibition of LPS-stimulated TNFα release from human peripheral blood mononuclear cells (TNFα screen). The class given is cell-based. The conditions noted are these: human PBMC, LPS stimulation, 18 hours incubation, TNFα in supernatant by ELISA. On the procedure:
Venous blood is collected from healthy volunteers and the mononuclear cells purified by centrifugation through Histopaque (Ficoll) cushions. TNFα production from these cells is stimulated by addition of lipopolysaccharide. After 18 hours incubation in the presence of LPS, the cell supernatant is removed and the concentration of TNFa in the supernatant determined by ELISA. Addition of PDE4 inhibitors reduces the. amount of TNFQ produced. An IC50 is determined which is equal to the concentration of compound that gives 50% inhibition TNFα production as compared to the LPS stimulated control wells.
In general terms: An ELISA detects its analyte on a solid surface through an enzyme-linked reagent.

The structures appear in SMILES notation.

As to `Cc1ccc(C(=O)N2CCC(NC(=O)c3cc(F)cnc3Oc3ccc(F)cc3)CC2)c(O)c1` [Example 79, 5-Fluoro-2-(4-fluoro-phenoxy)-N-[1-(2-hydroxy-4-methyl-benzoyl)-piperidin-4-yl]-nicotinamide], the IC50 was determined as 25.5 nM.
On to `O=C(NC1CCN(C(=O)c2cccc(O)c2)CC1)c1cc(F)cnc1Oc1ccc(F)cc1` [Example 80], for which the 50% inhibitory concentration (IC50) was determined as 7.4 nM.
On to `O=C(NC1CCN(C(=O)c2ccc3ccccc3c2O)CC1)c1cc(F)cnc1Oc1ccc(F)cc1` [Example 81], for which the half-inhibitory concentration (IC50) stood at 30 nM. Compared with the last molecule, the IC50 is about 4.1-fold higher.
Under `O=C(NC1CCN(C(=O)c2cc(F)ccc2O)CC1)c1cc(F)cnc1Oc1ccc(F)cc1` [Example 85] stands 28 nM.
Then `O=C(NC1CCN(C(=O)Cc2ccc(O)cc2)CC1)c1cc(F)cnc1Oc1ccc(F)cc1` [Example 88], with 114 nM; and `O=C(NC1CCN(C(=O)CCc2ccccc2O)CC1)c1cc(F)cnc1Oc1ccc(F)cc1` [Example 91], with 37 nM.
`O=C(N[C@H]1C[C@H]2CC[C@@H](C1)N2C(=O)Cc1ccc(O)cc1)c1cc(F)cnc1Oc1ccc(F)cc1` [Example 92, endo-5-Fluoro-2-(4-fluoro-phenoxy)-N-{8-[2-(4-hydroxy-phenyl)-acetyl]-8-aza-bicyclo[3.2.1]oct-3-yl}-nicotinamide] gave an IC50 of 185 nM.
`O=C(O)c1ccccc1C(=O)N1[C@@H]2CC[C@H]1C[C@H](NC(=O)c1cc(F)cnc1Oc1ccc(F)cc1)C2` [Example 100, exo-2-(3-{[5-Fluoro-2-(4-fluoro-phenoxy)-pyridine-3-carbonyl]-amino}8-aza-bicyclo[3.2.1]octane-8-carbonyl}-benzoic Acid] returned an IC50 of 56 nM.
Then `O=C(NC1CCC(NC(=O)C(O)C2CCCCC2)CC1)c1cc(F)cnc1Oc1ccc(F)cc1` (stereo not drawn) [Example 106], with 3.6 nM; and `COC(=O)c1cccc(C(=O)N[C@H]2CC[C@@H](NC(=O)c3cc(F)cnc3Oc3ccc(F)cc3)CC2)n1` [Example 123], with 21 nM.
As to `CC(C)(CC(=O)N[C@H]1CC[C@@H](NC(=O)c2cc(F)cnc2Oc2ccc(F)cc2)CC1)C(=O)O` [Example 129], the IC50 worked out at 30 nM.
On to `O=C(O)c1ccnc(C(=O)N[C@H]2CC[C@@H](NC(=O)c3cc(F)cnc3Oc3ccc(F)cc3)CC2)c1` [Example 135], for which it took 74 nM to reach half-maximal inhibition (IC50).
`COc1cc(C(=O)O)ccc1C(=O)N[C@H]1CC[C@@H](NC(=O)c2cc(F)cnc2Oc2ccc(F)cc2)CC1` [Example 137] yielded a half-inhibitory concentration (IC50) of 16 nM.
Take `COc1ccc(C(=O)N[C@H]2CC[C@@H](NC(=O)c3cc(F)cnc3Oc3cccc(F)c3)CC2)c(O)c1` [Example 152]: 0.2 nM corresponded to half-maximal inhibition (IC50).
`COc1ccc(C(=O)N[C@H]2CC[C@@H](NC(=O)c3cc(F)cnc3Oc3ccc(F)c(F)c3)CC2)c(O)c1` [Example 155] yielded an IC50 of 0.09 nM.
The molecule `COc1ccc(C(=O)N[C@H]2CC[C@@H](NC(=O)c3cc(F)cnc3Oc3ccc(F)c(Cl)c3)CC2)c(O)c1` [Example 156] had an IC50 of 0.14 nM.
Regarding `CCc1cccc(Oc2ncc(F)cc2C(=O)N[C@H]2CC[C@@H](NC(=O)c3ccc(OC)cc3O)CC2)c1` [Example 157], 2 nM corresponded to half-maximal inhibition (IC50).
Regarding `COc1ccc(C(=O)N[C@H]2CC[C@@H](NC(=O)c3cc(F)cnc3Oc3ccc4c(c3)CCC4)CC2)c(O)c1` [Example 159], the IC50 amounted to 4.6 nM.
`O=C(N[C@H]1CC[C@@H](C(=O)NCc2ccccc2O)CC1)c1cccnc1Oc1ccc(F)cc1` [Example 172, Syn-2-(4-Fluoro-phenoxy)-N-[4-(2-hydroxy-benzyl-carba-moyl)-cyclohexyl]-nicotinamide] displayed an IC50 of 4.3 nM.
Turning to `O=C(N[C@H]1CC[C@@H](C(=O)NCc2ccc(O)cc2F)CC1)c1cccnc1Oc1ccc(F)cc1` [Example 173, Syn-N-[4-(2-Fluoro-4-hydroxy-benzyl-carbamoyl)-cyclohexyl]-2-(4-fluoro-phenoxy)-nicotinamide], the IC50 turned out to be 2.1 nM.
Molecule `Cc1ccc(O)c(C(=O)N[C@H]2CC[C@@H](NC(=O)c3cc(F)cnc3Oc3ccc(F)c(F)c3)CC2)c1` [Example 174, Syn-2-(3.4-Difluoro-phenoxy)-5-fluoro-N-[4-(2-hydroxy-5-methyl-benzoylamino)-cyclohexyl]-nicotinamide] displayed an IC50 of 0.014 nM.
Under `O=C(N[C@H]1CC[C@@H](NC(=O)c2c(O)cccc2O)CC1)c1cc(F)cnc1Oc1ccc(F)c(F)c1` [Example 178] stands 0.15 nM; under `O=C(N[C@H]1CC[C@@H](NC(=O)c2cc(F)cnc2Oc2ccc(F)c(F)c2)CC1)c1cc(CO)ccc1O` [Example 183], 0.07 nM.
Under `O=C(N[C@H]1CC[C@@H](NC(=O)c2cc(F)cnc2Oc2ccc(F)c(F)c2)CC1)c1ccc(Cl)cc1O` [Example 186] stands 0.2 nM.
Molecule `COc1ccc(O)c(C(=O)N[C@H]2CC[C@@H](NC(=O)c3cc(F)cnc3Oc3ccc(F)c(F)c3)CC2)c1` [Example 187] had an IC50 of 0.006 nM.
Turning to `O=C(N[C@H]1CC[C@@H](NC(=O)c2cc(F)cnc2Oc2ccc(F)c(F)c2)CC1)c1ccccc1O` [Example 190], the IC50 worked out at 0.06 nM.
Molecule `O=C(N[C@H]1CC[C@@H](NC(=O)c2cc(F)cnc2Oc2ccc(F)c(F)c2)CC1)c1cc(Cl)c(Cl)cc1O` [Example 193] registered an IC50 of 9 nM.
Regarding `Cc1ccc(C(=O)N[C@H]2CC[C@@H](NC(=O)c3cc(F)cnc3Oc3cccc(OC(F)(F)F)c3)CC2)c(O)c1` [Example 195, Syn-5-Fluoro-N-[4-(2-hydroxy-4-methyl-benzoylamino)-cyclohexyl]-2-(3-trifluoromethoxy-phenoxy)-nicotinamide], half-maximal inhibition (IC50) was put at 0.4 nM. Against the preceding molecule, the IC50 is about 22-fold lower.
With `COc1cccc(Oc2ncc(F)cc2C(=O)N[C@H]2CC[C@@H](NC(=O)c3ccc(OC)cc3O)CC2)c1` [Example 197], the IC50 came to 1.8 nM. This IC50 lies about 4.5-fold higher than the previous one.
Consider `Cc1ccc(C(=O)N[C@H]2CC[C@@H](NC(=O)c3cc(F)cnc3Oc3cccc(C(F)(F)F)c3)CC2)c(O)c1` [Example 199], for which it took 0.7 nM to reach half-maximal inhibition (IC50). Against the preceding molecule, the IC50 is about 2.6-fold lower.
Consider `Cc1ccc(C(=O)N[C@H]2CC[C@@H](NC(=O)c3cc(F)cnc3Oc3ccc(F)c(Cl)c3)CC2)c(O)c1` [Example 200], for which inhibition was half-maximal at 0.05 nM (IC50).
Molecule `Cc1ccc(C(=O)N[C@H]2CC[C@@H](NC(=O)c3cc(F)cnc3Oc3cccc(Br)c3)CC2)c(O)c1` [Example 201] gave an IC50 of 0.3 nM.
Then `Cc1ccc(C(=O)N[C@H]2CC[C@@H](NC(=O)c3cc(F)cnc3Oc3ccc(F)cc3C)CC2)c(O)c1` [Example 203], with 7 nM; and `Cc1ccc(O)c(C(=O)N[C@H]2CC[C@@H](NC(=O)c3cc(F)cnc3Oc3cccc(C4CC4)c3)CC2)c1` [Example 204], with 0.3 nM.
For the molecule `Cc1ccc(O)c(C(=O)N[C@H]2CC[C@@H](NC(=O)c3cc(F)cnc3Oc3cccc(OC4CCC4)c3)CC2)c1` [Example 205], half-maximal inhibition (IC50) was put at 0.55 nM. This IC50 is about 1.8-fold higher than that of the molecule before.
In turn, `Cc1cccc(C(=O)NC2CCC(NC(=O)c3cc(F)cnc3Oc3ccc(F)c(F)c3)CC2)c1O` (stereo not drawn) [Example 208] yielded an IC50 of 0.09 nM.
In turn, `Cc1cccc(C(=O)NC2CCC(NC(=O)c3cc(F)cnc3Oc3ccc(Cl)c(F)c3)CC2)c1O` (stereo not drawn) [Example 210] yielded an IC50 of 13 nM.
`Cc1ccc(O)c(C(=O)NC2CCC(NC(=O)c3cc(F)cnc3Oc3cccc(F)c3)CC2)c1` (stereo not drawn) [Example 213] showed an IC50 of 0.2 nM.
In the case of `Cc1ccc(C(=O)NC2CCC(NC(=O)c3cc(F)cnc3Oc3cc(F)cc(F)c3)CC2)c(O)c1` (stereo not drawn) [Example 217], the IC50 worked out at 0.3 nM.

Broadly, the IC50 is the concentration that inhibits the measured activity by half.
